From patent publication US10745399B2 (priority 2015, dated 2020) come the findings set out here.

The structures appear in SMILES notation.

The target of the first assay is mTOR (human) (Homo sapiens (Human), UniProt P42345). As to the kind of experiment: mTOR (human) radiometric kinase assay. Format: biochemical. The note with it: IC50 (ATM) at least 2000 times higher compared with IC50 (mTOR). The method, then:
mTOR (human) was incubated with 50 mM HEPES pH 7.5, 1 mM EGTA, 0.01% Tween 20, 2 mg/ml of the substrate, 3 mM MnCl2 and [γ-^33P-ATP] (specific activity approximately 500 cpm/pmol, concentration as necessary). The reaction was initiated by addition of MgATP solution. After incubation at room temperature for 40 minutes, the reaction was stopped by addition of 3% phosphoric acid. 10 μl of the reaction solution were then transferred dropwise onto a P30 filtermat and washed three times for 5 min in 75 mM phosphoric acid and once in methanol, dried and evaluated by means of liquid scintillation counting.
Take `CNC(=O)c1cnc(-n2c(=O)n(C)c3cnc4cc(OC)c(-c5cnn(C)c5)cc4c32)c(F)c1` [compound 138, 5-Fluoro-6-[7-methoxy-3-methyl-8-(1-methyl-1H-pyrazol-4-yl)-2-oxo-2,3-dihydroimidazo[4,5-c]-quinolin-1-yl]-N-methyl-nicotinamid]: the “ratio IC50 (ATM):IC50(mTOR), selectivity with respect to mTOR” value is reported as “at least 2000 times”.

The test system of the next assay is CHK2 phosphorylation (phospho-Thr68) in HCT116 cells. Briefly: Cellular pCHK2 assay, bleomycin-induced phosphorylation of CHK2 (phospho-Thr68), immunofluorescence high content. Format: cell-based. The note with it: Homo sapiens, HCT-116; HCT116 cells, 10 μM bleomycin, 4 h; read-out: IC50 (pCHK2). An excerpt:
For the identification of substances which inhibit the phosphorylation of the protein kinase CHK2 at the amino acid threonine 68, an immunofluorescence-based “high content” analysis assay was used in HCT116 cells.
In vitro cell-based immunofluorescence assay for the identification of inhibitors of bleomycin-induced phosphorylation of CHK2 (phospho-Thr68) in the human colon carcinoma cell line HCT116:
HCT116 cells are sown out in a defined cell density in 384-well plates in culture medium (DMEM high glucose, 2 mM GlutaMax, 1 mM Na pyruvate, 10% FCS) and incubated overnight at 37° C. and 10% of CO2. On the following day, the test substances are added in a defined concentration range (1 nM to 30 μM) in combination with 10 μM bleomycin, where the concentration of the solvent DMSO is kept constant at 0.5%. After incubation for four hours at 37° C. and 10% of CO2, the cells are fixed (5 min, 4% formaldehyde in PBS), permeabilised (10 min, 0.2% Triton X-100 in PBS) and, after blocking of nonspecific binding sites (10% goat serum, 1% BSA in PBS), incubated overnight at 4° C. with a specific anti-pCHK2 antibody (cell signalling #2661). pCHK2 (Thr68) is determined using an Alexa488-labelled secondary anti-rabbit IgG antibody. Parallel staining of DNA with propidium iodide enables determination of the cell count. The pCHK2 signal is detected using a high-content imager (Molecular Devices IMX Ultra) and automatic image analysis using the MetaXpress software belonging to the instrument. The number of cell nuclei which have a pCHK2 signal above a defined background is determined.
In general, IC50 refers to the concentration needed to halve the response being measured. Turning to `COc1cnc(-n2c(=O)n(C)c3cnc4cc(OC)c(-c5ccc6nc[nH]c6c5)cc4c32)c(F)c1` [compound 153, 8-(3H-Benzimidazol-5-yl)-1-(3-fluoro-5-methoxypyridin-2-yl)-7-methoxy-3-methyl-1,3-dihydroimidazo[4,5-c]-quinolin-2-one], the IC50 was in the range of 200 to 1000 nM.

For the compound `CCn1cc(-c2cc3c(cc2OC)ncc2c3n(-c3ccncc3OC)c(=O)n2C)cn1` [compound 104, 8-(1-Ethyl-1H-pyrazol-4-yl)-7-methoxy-1-(3-methoxy-pyridin-4-yl)-3-methyl-1,3-dihydroimidazo[4,5-c] quinolin-2-one], the IC50 was in the range of 200 to 1000 nM.

Consider `COc1cc2ncc3c(c2cc1-c1cnn(C)c1)n(-c1c(F)cncc1OC(F)F)c(=O)n3C` [compound 146, 1-(3-Difluoromethoxy-5-fluoropyridin-4-yl)-7-methoxy-3-methyl-8-(1-methyl-1H-pyrazol-4-yl)-1,3-dihydroimidazo[4,5-c]-quinolin-2-one], for which the 50% inhibitory concentration (IC50) is < 200 nM.

Consider `COc1cc2ncc3c(c2cc1-c1cnn(C)n1)n(-c1c(F)cncc1OC)c(=O)n3C` [compound 127, 1-(3-Fluoro-5-methoxy-pyridin-4-yl)-7-methoxy-3-methyl-8-(2-methyl-2H-1,2,3-triazol-4-yl)-1,3-dihydroimidazo[4,5-c] quinolin-2-one], for which the IC50 is 200 to 1000 nM.

On to `CCn1cc(-c2cc3c(cc2OC)ncc2c3n(-c3c(F)cncc3OC)c(=O)n2C)c(C)n1` [compound 142, 8-(1-Ethyl-3-methyl-1H-pyrazol-4-yl)-1-(3-fluoro-5-methoxypyridin-4-yl)-7-methoxy-3-methyl-1,3-dihydroimidazo[4,5-c] quinolin-2-one], for which the half-inhibitory concentration (IC50) is 200 to 1000 nM.

For the compound `COc1cc2ncc3c(c2cc1-c1cnn(C(F)F)c1)n(-c1c(F)cncc1OC)c(=O)n3C` [compound 143, 8-(1-Difluoromethyl-1H-pyrazol-4-yl)-1-(3-fluoro-5-methoxypyridin-4-yl)-7-methoxy-3-methyl-1,3-dihydroimidazo[4,5-c] quinolin-2-one], the IC50 lay within 200 to 1000 nM.

`COc1cc2ncc3c(c2cc1-c1cn(C)nn1)n(-c1c(F)cncc1OC)c(=O)n3C` [compound 131, 1-(3-Fluoro-5-methoxy-pyridin-4-yl)-7-methoxy-3-methyl-8-(1-methyl-1H-1,2,3-triazol-4-yl)-1,3-dihydroimidazo[4,5-c]-quinolin-2-one]: the 50% inhibitory concentration (IC50) was in the range of 200 to 1000 nM.

Turning to `COc1cc2ncc3c(c2cc1-c1cnn(C)c1)n(-c1c(F)cncc1C1CC1)c(=O)n3C` [compound 202, 1-(3-Cyclopropyl-5-fluoro-pyridin-4-yl)-7-methoxy-3-methyl-8-(1-methyl-1H-pyrazol-4-yl)-1,3-dihydro-imidazo[4,5-c]quinolin-2-one], the IC50 fell in the range of 200 to 1000 nM.

In the case of `CCn1cc(-n2c(=O)n(C)c3cnc4cc(OC)c(-c5cnn(C)c5)cc4c32)c(C)n1` [compound 130, 1-(1-Ethyl-3-methyl-1H-pyrazol-4-yl)-7-methoxy-3-methyl-8-(1-methyl-1H-pyrazol-4-yl)-1,3-dihydro-imidazo[4,5-c]quinolin-2-one], the IC50 lay within 200 to 1000 nM.

For the compound `COc1cc2ncc3c(c2cc1-c1cn(C)nc1C)n(-c1ncc(OCS(C)(=O)=O)cc1F)c(=O)n3C` [compound 203, 8-(1,3-Dimethyl-1H-pyrazol-4-yl)-1-(3-fluoro-5-methyl-sulfonylmethoxypyridin-2-yl)-7-methoxy-3-methyl-1,3-dihydroimidazo[4,5-c]-quinolin-2-one], the IC50 lay within 200 to 1000 nM.

For `COc1cc2ncc3c(c2cc1-c1cn(C)nn1)n(-c1ccncc1F)c(=O)n3C` [compound 64, 1-(3-Fluoropyridin-4-yl)-7-methoxy-3-methyl-8-(1-methyl-1H-1,2,3-triazol-4-yl)-1,3-dihydroimidazo-[4,5-c]quinolin-2-one], the IC50 was 200 to 1000 nM.

With `C=CCOc1cnc(-n2c(=O)n(C)c3cnc4cc(OC)c(-c5cnn(C)c5)cc4c32)c(F)c1` [compound 204, 1-(5-Allyloxy-3-fluoropyridin-2-yl)-7-methoxy-3-methyl-8-(1-methyl-1H-pyrazol-4-yl)-1,3-dihydroimidazo[4,5-c]-quinolin-2-one], the IC50 was 200 to 1000 nM.

For `COc1cc2ncc3c(c2cc1-c1cnn(C)c1)n(-c1ccc(F)cn1)c(=O)n3C` [Compound Example 50, 1-(5-Fluoropyridin-2-yl)-7-methoxy-3-methyl-8-(1-methyl-1H-pyrazol-4-yl)-1,3-dihydroimidazo[4,5-c]-quinolin-2-one], the IC50 lay in the range of 200 to 1000 nM.

`COc1cc2ncc3c(c2cc1-c1cnn(C)n1)n(-c1cn(C)nc1C)c(=O)n3C` [compound 102, 1-(1,3-Dimethyl-1H-pyrazol-4-yl)-7-methoxy-3-methyl-8-(2-methyl-2H-1,2,3-triazol-4-yl)-1,3-dihydroimidazo-[4,5-c]quinolin-2-one]: the IC50 was < 200 nM.

As to `COc1cnc(-n2c(=O)[nH]c3cnc4cc(OC)c(-c5cnn(C)c5)cc4c32)c(F)c1` [compound 115, 1-(3-Fluoro-5-methoxy-pyridin-2-yl)-7-methoxy-8-(1-methyl-1H-pyrazol-4-yl)-1,3-dihydroimidazo[4,5-c]-quinolin-2-one], the IC50 was in the range of 200 to 1000 nM.

For the compound `COc1cc2ncc3c(c2cc1-c1ccn[nH]1)n(-c1c(F)cncc1OC)c(=O)n3C` [compound 124, 1-(3-Fluoro-5-methoxy-pyridin-4-yl)-7-methoxy-3-methyl-8-(2H-pyrazol-3-yl)-1,3-dihydroimidazo[4,5-c] quinolin-2-one], the IC50 lay in the range of 200 to 1000 nM.

Take `COc1cc2ncc3c(c2cc1-c1ccc2nc(C)[nH]c2c1)n(-c1cn(C)nc1C)c(=O)n3C` [compound 132, 1-(1,3-Dimethyl-1H-pyrazol-4-yl)-7-methoxy-3-methyl-8-(2-methyl-3H-benzo-imidazol-5-yl)-1,3-dihydro-imidazo[4,5-c]quinolin-2-one]: the IC50 was 200 to 1000 nM.

Turning to `COc1cc2ncc3c(c2cc1-c1cnn(C)c1)n(-c1ncccn1)c(=O)n3C` [Compound Example 52, 7-Methoxy-3-methyl-8-(1-methyl-1H-pyrazol-4-yl)-1-pyrimidin-2-yl-1,3-dihydro-imidazo[4,5-c]quinolin-2-one], the IC50 fell in the range of 200 to 1000 nM.

Take `COc1cc2ncc3c(c2cc1-c1cnn(C)c1)n(-c1ccccn1)c(=O)n3C` [Compound Example 56, 7-Methoxy-3-methyl-8-(1-methyl-1H-pyrazol-4-yl)-1-pyridin-2-yl-1,3-dihydro-imidazo[4,5-c]quinolin-2-one]: the IC50 was 200 to 1000 nM.

Take `CNC(=O)c1cnc(-n2c(=O)n(C)c3cnc4cc(OC)c(-c5cn(C)nc5C)cc4c32)c(F)c1` [compound 139, 6-[8-(1,3-Dimethyl-1H-pyrazol-4-yl)-7-methoxy-3-methyl-2-oxo-2,3-dihydro-imidazo[4,5-c]quinolin-1-yl]-5-fluoro-N-methyl-nicotinamid]: the IC50 is 200 to 1000 nM.

With `COc1cc2ncc3c(c2cc1-c1cn(C)nn1)n(-c1c(C)cncc1F)c(=O)n3C` [compound 63, 1-(3-Fluoro-5-methylpyridin-4-yl)-7-methoxy-3-methyl-8-(1-methyl-1H-1,2,3-triazol-4-yl)-1,3-dihydroimidazo-[4,5-c]quinolin-2-one], the IC50 was 200 to 1000 nM.

Turning to `CCc1cncc(F)c1-n1c(=O)n(C)c2cnc3cc(OC)c(-c4cnn(C)n4)cc3c21` [compound 112, 1-(3-Ethyl-5-fluoropyridin-4-yl)-7-methoxy-3-methyl-8-(2-methyl-2H-1,2,3-triazol-4-yl)-1,3-dihydroimidazo-[4,5-c]quinolin-2-one], the IC50 lay in the range of 200 to 1000 nM.

Turning to `COc1cc2ncc3c(c2cc1-c1cnn(C)n1)n(-c1ncccc1F)c(=O)n3C` [compound 158, 1-(3-Fluoropyridin-2-yl)-7-methoxy-3-methyl-8-(2-methyl-2H-1,2,3-triazol-4-yl)-1,3-dihydroimidazo-[4,5-c]quinolin-2-one], the IC50 fell in the range of 200 to 1000 nM.

For `COc1cc2ncc3c(c2cc1-c1cnn(C)n1)n(-c1ncc(F)cc1F)c(=O)n3C` [compound 101, 1-(3,5-Difluoropyridin-2-yl)-7-methoxy-3-methyl-8-(2-methyl-2H-1,2,3-triazol-4-yl)-1,3-dihydroimidazo-[4,5-c]quinolin-2-one], the IC50 was < 200 nM.
